Results as given in patent US20230114728A1 (Venatorx Pharmaceuticals, Inc., priority 2019, published 2023).
pEC50: −log10 of the molar value. In brackets after ≈: the same amount, converted by molar mass.

How the values were obtained:
[1] = system: A. baumannii CDC-0045 producing TEM-1D, OXA-23, and OXA-69; experiment: Broth microdilution MIC in iron-depleted CAMHB (IDM); assay type: cell-based; details: Acinetobacter baumannii, read-out: Minimum Inhibitory Concentration, CDC-0045
P. aeruginosa CDC-0110 = experiment: as above; assay type: cell-based; details: Pseudomonas aeruginosa, CDC0110, read-out: Minimum Inhibitory Concentration, P. aeruginosa CDC-0110
Summary of the method: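 CLSI broth microdilution in iron-depleted cation-adjusted Mueller Hinton broth (Chelex-treated, Ca, Mg, Zn restored, pH 7.3), inoculum 2-8×10^5 CFU/mL, 2-fold compound dilutions. Pseudomonas plates incubated 16-20 h at 37 °C; MIC read visually as lowest concentration without growth.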

A. baumannii PBP1a = A. baumannii PBP1a (Acinetobacter baumannii, UniProt A0ABX6CK30); experiment: Bocillin-FL fluorescence polarization competition binding assay, A. baumannii PBP1a; details: fluorescence polarization competition binding assay using Bocillin-FL; column 1; read-out: A. baumannii PBP1a Potency
Source text: Example I: Experimental Method for Penicillin-Binding Protein Binding Assays with Bocillin-FL Via Fluorescence Polarization
To determine the ability of boronic acid-based test PBP inhibitors to bind Penicillin Binding Proteins (PBPs), Bocillin-FL (fluorescently-labeled penicillin V; ThermoFisher Scientific) was used in a fluorescence polarization (FP) competition binding assay to assess inhibitor binding to PBP2, PBP3 or PBP4 from Escherichia coli (K12), PBP3 from Pseudomonas aeruginosa (PA01), PBP1a, PBP2 and PBP3 from Acinetobacter baumannii (ATCC 19606), and PBP2 from Neiserria gonorrheae (FA19). PBPs were cloned and purified as described previously (E. coli PBPs, King, D. T, et al., ACS Infectious Diseases 2015, 1, 175-184; P. aeruginosa PBP3, Han et. al., PNAS 2010, 107 (51), 22002-22007; A. baumannii PBPs, Penwell et. al., Antimicrob. Agents Chemother. 2015, 59 (3), 1680-1689; N. gonorrhoeae PBP2, Singh et. al., J Biol. Chem. 2019, 294 (38), 14020-14032). To establish assay conditions for competition binding, enzyme titration/saturation binding experiments were initially performed. Bocillin-FL was prepared at 0.2 μM in a buffer comprised of 50 mM Hepes (pH 8.0), 300 mM NaCl and 5% (v/v) glycerol for reactions with E. coli, P. aeruginosa and N. gonorrhoeae PBPs, and 25 mM Tris (pH 8.0), 200 mM NaCl and 10% (v/v) glycerol and 0.005% (v/v) Tween 20 for reactions with A. baumannii PBPs. Saturation binding was performed by mixing 40 μl of PBP solutions ranging in concentrations from 0-24 μM with 40 μl of the 0.2 μM Bocillin-FL solution, in individual wells of a black 384-well microplate. FP was measured immediately upon mixing (Excitation, 490 nm; Emission, 520 nm; g-factor, 0.96), using a Cytation3 (BioTek) microplate reader and measured continuously for up to 120 minutes. […] The competition binding assay (80 μl final volume) was validated using beta-lactams and PBPs at final concentrations of: 1.5 μM, E. coli PBP3; 0.75 μM, P. aeruginosa PBP3; 1 μM A. baumannii PBP1a; 2.5 μM A. baumannii PBP2; 0.2 μM A. baumannii PBP3; and […] N. gonorrhoeae PBP2. Bocillin-FL was at 0.1 μM (0.05 μM with A. baumannii PBP1a) and beta-lactam concentrations ranged from 0-1000 μM. […] Bocillin-FL was added and the FP immediately measured for up to 60 minutes (90 minutes for E. coli PBP2). […] The beta-lactam potency was reported as the concentration of beta-lactam required to reduce the amount of PBP bound-Bocillin-FL by 50% (EC50). […] Binding assays for boronic acid PBP inhibitors were performed in an identical fashion for the respective PBPs

A. baumannii PBP1a, sequence (A0ABX6CK30 entry or part of it): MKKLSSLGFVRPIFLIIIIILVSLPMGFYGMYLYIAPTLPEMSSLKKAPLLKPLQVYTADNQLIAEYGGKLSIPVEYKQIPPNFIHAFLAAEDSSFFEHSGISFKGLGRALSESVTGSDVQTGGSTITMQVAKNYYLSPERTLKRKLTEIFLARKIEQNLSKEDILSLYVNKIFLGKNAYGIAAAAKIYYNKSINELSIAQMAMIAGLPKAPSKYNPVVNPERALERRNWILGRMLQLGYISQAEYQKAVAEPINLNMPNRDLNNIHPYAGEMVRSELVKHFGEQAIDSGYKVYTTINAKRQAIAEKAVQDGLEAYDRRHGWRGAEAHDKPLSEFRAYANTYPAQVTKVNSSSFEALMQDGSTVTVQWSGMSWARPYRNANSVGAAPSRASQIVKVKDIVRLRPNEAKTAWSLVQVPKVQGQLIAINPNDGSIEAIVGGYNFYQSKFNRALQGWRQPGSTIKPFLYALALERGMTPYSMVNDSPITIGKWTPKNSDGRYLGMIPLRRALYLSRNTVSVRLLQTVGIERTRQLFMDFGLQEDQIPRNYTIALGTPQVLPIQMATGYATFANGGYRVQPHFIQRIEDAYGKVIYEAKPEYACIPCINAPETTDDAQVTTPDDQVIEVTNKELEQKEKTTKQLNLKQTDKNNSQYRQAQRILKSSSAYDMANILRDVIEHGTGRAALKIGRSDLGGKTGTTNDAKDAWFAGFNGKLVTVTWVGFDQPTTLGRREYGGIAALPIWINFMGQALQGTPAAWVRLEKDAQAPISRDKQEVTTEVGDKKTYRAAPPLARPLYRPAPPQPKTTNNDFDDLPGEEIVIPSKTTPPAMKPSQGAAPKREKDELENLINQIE

C[C@@H](O)[C@@H](NC(=O)N1CCN(CCNC(=O)c2c(F)cc(O)c(O)c2Cl)C(=O)C1=O)C(=O)N[C@H]1Cc2ccc(F)c(C(=O)O)c2OB1O [Example 102, (R)-3-((2R,3R)-2-(4-(2-(2-chloro-6-fluoro-3,4-dihydroxybenzamido)ethyl)-2,3-dioxopiperazine-1-carboxamido)-3-hydroxybutanamido)-7-fluoro-2-hydroxy-3,4-dihydro-2H-benzo[e][1,2]oxaborinine-8-carboxylic acid]
MIC [1]: 32 to 64 µg/mL (≈ 45.9 to 91.7 µM)
MIC (P. aeruginosa CDC-0110): 0.5 to 1 µg/mL (≈ 0.717 to 1.43 µM)
pEC50 (A. baumannii PBP1a): < 4.00

NS(=O)(=O)c1cc(O)cc(C(NC(=O)N2CCN(Cc3c(F)cc(O)c(O)c3Cl)C(=O)C2=O)C(=O)N[C@H]2Cc3cccc(C(=O)O)c3OB2O)c1 (stereo partly drawn) [Example 132, (3R)-3-(2-(4-(2-chloro-6-fluoro-3,4-dihydroxybenzyl)-2,3-dioxopiperazine-1-carboxamido)-2-(3-hydroxy-5-sulfamoylphenyl)acetamido)-2-hydroxy-3,4-dihydro-2H-benzo[e][1,2]oxaborinine-8-carboxylic acid]
MIC [1]: > 128 µg/mL
MIC (P. aeruginosa CDC-0110): 2 to 4 µg/mL (≈ 2.67 to 5.33 µM)
pEC50 (A. baumannii PBP1a): 4.00 to 4.52

NCCCN1CCN(C(=O)N[C@@H](C(=O)N[C@H]2Cc3ccc(F)c(C(=O)O)c3OB2O)c2cc(F)c(O)c(O)c2Cl)C(=O)C1=O (single isomer, unassigned) [Example 180]
MIC [1]: 2 to 4 µg/mL (≈ 3.13 to 6.25 µM)
MIC (P. aeruginosa CDC-0110): 0.25 µg/mL (≈ 0.391 µM)
pEC50 (A. baumannii PBP1a): < 4.00

NC1(CN2CCN(C(=O)N[C@@H](C(=O)N[C@H]3Cc4ccc(F)c(C(=O)O)c4OB3O)c3c(F)cc(O)c(O)c3Cl)C(=O)C2=O)CC1 (single isomer, unassigned) [Example 134]
MIC [1]: 32 to 64 µg/mL (≈ 49.1 to 98.2 µM)
MIC (P. aeruginosa CDC-0110): 2 to 4 µg/mL (≈ 3.07 to 6.14 µM)
pEC50 (A. baumannii PBP1a): < 4.00

NCCN1CCN(C(=O)N[C@@H](C(=O)N[C@H]2Cc3ccc(F)c(C(=O)O)c3OB2O)c2cc(F)c(O)c(O)c2Cl)C(=O)C1=O (single isomer, unassigned) [Example 179]
MIC [1]: 8 to 16 µg/mL (≈ 12.8 to 25.6 µM)
MIC (P. aeruginosa CDC-0110): 0.5 to 1 µg/mL (≈ 0.799 to 1.6 µM)
pEC50 (A. baumannii PBP1a): < 4.00

NC1(CN2CCN(C(=O)N[C@@H](C(=O)N[C@H]3Cc4ccc(F)c(C(=O)O)c4OB3O)c3cc(F)c(O)c(O)c3Cl)C(=O)C2=O)CC1 (single isomer, unassigned) [Example 133]
MIC [1]: 8 to 16 µg/mL (≈ 12.3 to 24.5 µM)
MIC (P. aeruginosa CDC-0110): 0.5 to 1 µg/mL (≈ 0.767 to 1.53 µM)

CCN1CCN(C(=O)NC(C(=O)N[C@H]2Cc3cccc(C(=O)O)c3OB2O)c2c(F)cc(N)cc2F)C(=O)C1=O (stereo partly drawn) [Example 181, (3R)-3-(2-(4-amino-2,6-difluorophenyl)-2-(4-ethyl-2,3-dioxopiperazine-1-carboxamido)acetamido)-2-hydroxy-3,4-dihydro-2H-benzo[e][1,2]oxaborinine-8-carboxylic acid]
pEC50 (A. baumannii PBP1a): < 4.00

NS(=O)(=O)Nc1cccc(C(NC(=O)N2CCN(Cc3c(F)cc(O)c(O)c3Cl)C(=O)C2=O)C(=O)N[C@H]2Cc3cccc(C(=O)O)c3OB2O)c1 (stereo partly drawn) [Example 131, (3R)-3-(2-(4-(2-chloro-6-fluoro-3,4-dihydroxybenzyl)-2,3-dioxopiperazine-1-carboxamido)-2-(3-(sulfamoylamino)phenyl)acetamido)-2-hydroxy-3,4-dihydro-2H-benzo[e][1,2]oxaborinine-8-carboxylic acid]
MIC [1]: > 128 µg/mL
MIC (P. aeruginosa CDC-0110): 2 to 4 µg/mL (≈ 2.67 to 5.34 µM)
pEC50 (A. baumannii PBP1a): 4.00 to 4.52

CCN1CCN(C(=O)N[C@H](C(=O)N[C@H]2Cc3ccc(F)c(C(=O)O)c3OB2O)c2c(F)cc(O)c(O)c2Cl)C(=O)C1=O (single isomer, unassigned) [Example 125]
MIC [1]: > 128 µg/mL
MIC (P. aeruginosa CDC-0110): > 128 µg/mL
